Where two headings read alike, the source gives them in different places.
How the values were obtained:
hard and soft fouling = test: Antifouling efficacy of paint on fiberglass panels submerged in seawater; format: in vivo; conditions: single biocide, explanatory statement
Experimental: The antifouling efficacy of the composition of Example 1 was evaluated by mixing […] of it into 90 grams of a paint base. The commercial paint comprised:
This paint was painted onto fiberglass panels (8″×10″) and (12″×6″), which were then submerged in seawater for eight months (and running) in Miami, Fla.

[1] = cited from earlier work; for solubility: background statement

Molecule	efficacy against algae (hard and soft fouling)	resistance to barnacle formation (hard and soft fouling)	solubility [1]	water solubility ([1]; in seawater)	water solubility ([1]; water)
[Cu].[O]=[Cu] [cuprous oxide]	relatively ineffective against algae	strongly resisting barnacle formation	–	–	–
On1ccccc1=S.On1ccccc1=S.[Cu] [Copper pyrithione, copper pyrithione]	most effective against algae	–	about 1 ppm	less than 1 ppm	–
[Na+].[O-][n+]1ccccc1[S-] [sodium salt of pyrithione, sodium pyrithione]	–	–	–	–	about 53 % by weight
zinc pyrithione	–	–	6-10 ppm	–	6-10 ppm

Reference: patent US8158158B2, “Composite biocidal particles” (Arch Chemicals, Inc., priority 1998, dated 2012)
